Assay results published in patent EP4818192A1, “USE OF GRP78-LIKE PEPTIDES” (priority 2023, dated 2026).
Ends that are not written are not given here.

The sequences below were run on periodontal ligament cells (rPDL).
Experimental: A total of 5.0 × 10^4 cells were seeded, and the culture medium was removed and the cells were washed twice with DPBS. The prepared fluorescent peptides were mixed with serum-free culture medium at a concentration of 200 µg/mL and incubated for 1 hour. After 1 hour of treatment, the cells were washed five times with DPBS and mounted with a mounting solution containing DAPI.

Cell permeability, high cell permeability:
MEHFIKLYKKKTGKDVRK [SEQ ID NO: 4, MEHFIKLYKKKTGKDVRK]
MVLTKMKETAEAYLGKKVTH [SEQ ID NO: 3]
TFAPEEISAMVLTK [SEQ ID NO: 1, TFAPEEISAMVLTK]
